The record followed here is US5135955A, “Propanamine derivatives” (Eli Lilly and Company, priority 1989, dated 1992).

Where a name gives a salt, the structure may show the parent alone. A value given as a limit tells only on which side of the number the result lay.

For one series, the system named is Candida albicans A26. Briefly: in vitro antifungal activity, Candida albicans (MIC). The series is classed as cell-based. Particulars: 35° C., 48 hours, RPMI 1640 plus 10% fetal calf serum, 95-100% inhibition of growth, read-out: minimum inhibitory concentration (MIC), C.a. As for the experimental part:
(§1) The antifungal activity was assayed in vitro against Candida abicans A26, Trichophyton mentagrophytes CDC27, and Aspergillus flavus M152. The inocula, previously frozen under liquid nitrogen in a lactose, glycerol and water solution, were standardized by counting spores with a hemocytometer. Final concentrations (C. albicans, 1×10^5 cells/m; T. mentagrophytes, 1×10^6 cells/ml; A. flavus, 1×10^5 cells/ml) in RPMI 1640 plus 10% fetal calf serum were added to each of the 96 wells of a microtiter plate (100 μl/well).The compounds to be tested were solubilized in either water or ethanol and added to the microtiter wells in serial dilutions to give final concentrations in the range 0.039-20 μg/ml. The plates were incubated at 35° C. for 48 hours. The minimum inhibitory concentration (MIC) values were determined as the highest dilution showing 95-100% inhibition of growth.
(§2) ^a Minimum inhibitory concentration expressed in μg/ml
^b C.a. means Candida albicans A26

The subject of series [1] is thromboplastin clotting time in human plasma. The experiment in a line: prothrombin time test (thromboplastin clotting time in human plasma). Particulars: 37° C., human plasma. Format: biochemical. As for the experimental part:
Briefly, to 0.1 ml of each of human plasma, normal saline and thromboplastin was added 0.03 ml of the test compound of the present invention (2 mg/ml in 50 percent methanol). The clotting time was measured at 37° C. with a Fibrometer.
^a Expressed in seconds
^b Concentration of compound tested in micrograms per milliliter of […]

Series [2] relates to Trichophyton mentagrophytes CDC27. The experiment in a line: in vitro antifungal activity, Trichophyton mentagrophytes (MIC). The series is classed as cell-based. The following applies: 35° C., 48 hours, RPMI 1640 plus 10% fetal calf serum, 95-100% inhibition of growth, read-out: minimum inhibitory concentration (MIC), T.m. The procedure: as §1, §2
^d T.m. means Trichophyton mentagrophytes CDC27

Another series concerns Aspergillus flavus M152. Briefly: in vitro antifungal activity, Aspergillus flavus (MIC). Format: cell-based. The following applies: 35° C., 48 hours, RPMI 1640 plus 10% fetal calf serum, 95-100% inhibition of growth, read-out: minimum inhibitory concentration (MIC), A.f. As for the experimental part:
as §1, §2
^c A.f. means Aspergillus flavus M152

A further series is described as follows: solubility in methanol. Format: physicochemical.
Setting [3] is: 22 micrograms per milliliter of plasma.
Where [4] appears, read: 45 micrograms per milliliter of plasma.
The mark [5] stands for this setting: 90 micrograms per milliliter of plasma.
[6] abbreviates: 180 micrograms per milliliter of plasma.

On to `CCCCCCOc1ccc(CC(CN)c2ccccc2)cc1` (stereo not drawn) [Example 1, 4-(Hexyloxy)-β-phenylbenzenepropanamine], for which the MIC (in the series with Candida albicans A26; in series [2]; in the series with Aspergillus flavus M152) was 10 µg/mL throughout. In addition, the plasma prothrombin time in series [1] (11 micrograms per milliliter of plasma) was 32 s; in series [1] (setting [3]), 43 s; in series [1] (setting [4]) it was 91 s; in series [1] (setting [5]) it was more than 300 s; in series [1] (setting [6]) it was more than 300 s.
As for `CCCCCCCCOc1ccc(CC(CN)c2ccccc2)cc1` (stereo not drawn) [Example 2, 4-(Octyloxy)-β-phenylbenzenepropanamine], the figures for the MIC (in the series on Candida albicans A26; in series [2]; in the series with Aspergillus flavus M152) were 20 µg/mL, 20 µg/mL and 10 µg/mL, respectively. The plasma prothrombin time in series [1] (setting [3]) was 38 s; in series [1] (setting [4]), 79 s; in series [1] (setting [5]) it was more than 300 s; in series [1] (setting [6]), more than 300 s.
As to `CCCCCOc1ccc(CC(CN)c2ccccc2)cc1.Cl` (stereo not drawn) [Example 4, 4-(Pentyloxy)-β-phenylbenzenepropanamine hydrochloride], the MIC in the series with Candida albicans A26 is 10 µg/mL; in series [2] it was 5 µg/mL; in the series on Aspergillus flavus M152 it was 5 µg/mL. Moreover, the plasma prothrombin time in series [1] (setting [4]) is 37 s; in series [1] (setting [5]) it was 91 s; in series [1] (setting [6]) it was more than 300 s.
Take `CCCCOc1ccc(CC(CN)c2ccccc2)cc1.Cl` (stereo not drawn) [Example 6, 4-(Butyloxy)-β-phenylbenzenepropanamine hydrochloride]: the MIC in the series with Candida albicans A26 stood at 10 µg/mL; in series [2], 5 µg/mL; in the series with Aspergillus flavus M152 it was 5 µg/mL. For the same compound, the plasma prothrombin time came out at 20 s in series [1] (setting [3]), 26 s in series [1] (setting [4]), 46 s in series [1] (setting [5]) and 83 s in series [1] (setting [6]).
Take `CCCCCCOc1ccc(CC(CN)c2ccc(OC)c(OC)c2)cc1` (stereo not drawn) [Example 16, .varies.-(Hexyloxy)-β-(3,4-dimethoxy)phenylbenzenepropanamine hydrochloride]: the MIC amounted to 20 µg/mL in the series on Candida albicans A26, 10 µg/mL in series [2] and 10 µg/mL in the series with Aspergillus flavus M152. Also, the plasma prothrombin time in series [1] (setting [3]) turned out to be 27 s; in series [1] (setting [4]), 57 s; in series [1] (setting [5]), 81 s; in series [1] (setting [6]), 235 s.
On to `CCCCCCCOc1ccc(CC(CN)c2ccc(OC)cc2)cc1` (stereo not drawn) [Example 21, 4-(Heptyloxy)-β-(4-methoxy)phenylbenzenepropanamine], for which the solubility in methanol entry in the series “solubility in methanol” was “insoluble”.
In the case of `Cl.NCC(Cc1cccc2ccccc12)c1ccccc1` (stereo not drawn) [Example 22, β-Phenyl-1-naphthalenepropanamine hydrochloride], the MIC was 20 µg/mL in the series on Candida albicans A26, 10 µg/mL in series [2] and 10 µg/mL in the series on Aspergillus flavus M152. This compound also showed a plasma prothrombin time in series [1] (setting [6]) of more than 300 s.
Turning to `CCCCCCOc1ccc(CC(CN)c2ccc(F)cc2)cc1` (stereo not drawn) [Example 26, 4(Hexyloxy)-β-(4-fluorophenyl)benzenepropanamine], the MIC in the series on Candida albicans A26 worked out at 10 µg/mL; in series [2] it was 10 µg/mL; with Aspergillus flavus M152 it was 5 µg/mL. Moreover, the results for the plasma prothrombin time in series [1] (setting [4]), in series [1] (setting [5]) and in series [1] (setting [6]) were 29 s, 67 s and 500 s, respectively.
Turning to `CC(CCc1ccc(OCCC2CCCCC2)cc1)NC1CCCC(C(F)(F)F)C1` (stereo not drawn) [Example 39, 4-(2-Cyclohexylethoxy)-α-methyl-N-[3-(trifluoromethyl)-cyclohexyl]benzenepropanamine hydrochloride], the MIC with Candida albicans A26 was 5 µg/mL; in series [2], more than 20 µg/mL; with Aspergillus flavus M152 it was more than 20 µg/mL. The plasma prothrombin time in series [1] (setting [4]) was found to be 90 s.
Turning to `CCCCOc1ccc(CCC(C)N(C)C)cc1` (stereo not drawn) [Example 41, 4-Butoxy-N,N,α-trimethylbenzenepropanamine hydrochloride], the MIC with Candida albicans A26 was determined as 0.156 µg/mL; in series [2], 0.078 µg/mL; in the series on Aspergillus flavus M152 it was 1.25 µg/mL. In addition, the plasma prothrombin time was 21 s in series [1] (setting [4]), 24 s in series [1] (setting [5]) and 41 s in series [1] (setting [6]).
In the case of `CCCCOc1ccc(CCC(C)N2CC(C)OC(C)C2)cc1` (centres unmarked) [Example 69, 4-[3-(4-Butoxyphenyl)-1-methylpropyl]-2,6-dimethylmorpholine hydrochloride], the MIC in the series on Candida albicans A26 is more than 20 µg/mL; in series [2], 1.25 µg/mL; in the series with Aspergillus flavus M152 it was more than 20 µg/mL.
Regarding `CCCCOc1ccc(CCC(CC)N(C)C)cc1` (stereo not drawn) [Example 70, 4-Butoxy-α-ethyl-N,N-dimethylbenzenepropanamine hydrochloride], the MIC in the series on Candida albicans A26 stood at 0.156 µg/mL; in series [2] it was 0.156 µg/mL; in the series with Aspergillus flavus M152, 10 µg/mL.
Take `COc1ccc(CC(c2ccccc2)C(C)N)cc1OCC1CCCCC1` (stereo not drawn) [Example 71, 3-(Cyclohexylmethoxy)-4-methoxy-α-methyl-β-phenylbenzenepropanamine hydrochloride]: the MIC was determined as 20 µg/mL in the series on Candida albicans A26, 10 µg/mL in series [2] and 10 µg/mL with Aspergillus flavus M152.
With `CCCCCCOc1ccc(CC(c2ccc(OC)cc2)C(C)N)cc1` (stereo not drawn) [Example 72, 4-(Hexyloxy)-β-4-methoxyphenyl-αmethylbenzenepropanamine hydrochloride], the MIC in the series with Candida albicans A26 is 10 µg/mL; in series [2] it was 5 µg/mL; with Aspergillus flavus M152 it was 10 µg/mL.
Regarding `CC(CCc1ccc(OCc2ccccc2)cc1)N(C)C` (stereo not drawn) [Example 84, N,N,α-Trimethyl-4-(phenylmethoxy)benzene propanamine hydrochloride], the MIC came out at 0.156 µg/mL in the series on Candida albicans A26, 0.312 µg/mL in series [2] and 10 µg/mL in the series on Aspergillus flavus M152.
